Reference: US20260078114A1, “COMPOUND USED AS INHIBITOR OF CDK4 KINASE AND USE THEREOF” (TYK MEDICINES, INC., priority 2022, published 2026)

Assays:
[1] = tested on: Human breast cancer cell MCF-7; test: Cellular antiproliferative assay (MTT, 5 days), MCF-7; assay type: cell-based; conditions: Homo sapiens, MCF7, 120 h, MCF-7 cells, 5 days incubation
Experimental: (§1) Human breast cancer cell MCF-7, ovarian cancer cell A2780, human mantle cell lymphoma cell JEKO-1. DMEM medium (Bio-Channel), DMSO (dimethyl sulfoxide), MTT (thiazolyl blue), 0.25% EDTA-Tripsin (tryptic digest), 1×PBS (phosphate buffer, PH7.2), 96-well plate (Corning), fetal bovine serum (FBS), 10,000 U/mL penicillin-G/streptomycin, high-speed cryo-centrifuge (EPPENDORF 5810R), enzyme-linked immunoassay (Tecan Spark).
(§2) • A) Tumor cells were cultured in DMEM (high sugar with 10% FBS and 100 U/mL penicillin-G/streptomycin) at 37° C., 5% CO2 and saturated humidity until 80-90% dense. • B) Removed the culture medium from 10 cm Petri dishes; • C) Rinsed the cells once with 10 ml 1×PBS; • D) Added 4 ml 0.25% EDTA-Tripsin into 37° C., 5% CO2 incubator for trypsin digestion for 5 minutes, transferred to 15 ml centrifuge tube, centrifuged at 200 g for 5 minutes, discarded the supernatant to get cell precipitate; • E) Resuspended with 4 ml DMEM medium, counted and adjust to 50,000 cells/ml. • F) Added cell suspension to 96-well plate with 100 μL per well volume and incubated overnight at 37° C., 5% CO2 incubator.
(§3) • A) Preparation of gradient dilution solution of the tested compound: the test compound was configured into 1 mM reservoir solution.
(§4) • A) Taking the cell culture plate and adding 10 μL of 5 mg/ml MTT in the biosafety cabinet; • B) Putting the cell culture plate back into the incubator and continued incubation for 3 hours; • C) Taking the cell culture plate and removing the culture medium, adding 100 μL isopropanol (containing 0.4 mM HCl, 0.1% NP-40), and shaking the bed at room temperature for 30 min; and • D) Determining the absorbance value by selecting 570 nm on a TECAN enzyme-linked immunoassay detector.
(§5) The % Cell Viability was calculated using the following formula:
(§6) [formula] • Lum_HC: 0.1% DMSO control cell reading • Lum_Sample: cell readings with compound added • Lum_LC: Blank medium reading

[2] = tested on: human mantle cell lymphoma cell JEKO-1; test: Cellular antiproliferative assay (MTT, 5 days), JEKO-1; assay type: cell-based; conditions: Homo sapiens, 120 h, JEKO-1 cells, 5 days incubation
Experimental: as §1, §2, §3, §4, §5, §6

[3] = tested on: ovarian cancer cell A2780; test: Cellular antiproliferative assay (MTT, 5 days), A2780; assay type: cell-based, human; conditions: Homo sapiens, 120 h, A2780 cells, 5 days incubation
Experimental: as §1, §2, §3, §4, §5, §6

| Compound | IC50 [1] | IC50 [2] | IC50 [3] |
| --- | --- | --- | --- |
| CC1CCN(C)c2nc3c(F)cc(-c4nc(N[C@@H]5CCOC[C@H]5O)ncc4Cl)cc3n21 (mixture of isomers) [TB-44, (3S,4R)-4-((5-chloro-4-(9-fluoro-1,4-dimethyl-1,2,3,4-tetrahydrobenzo[4,5]imidazo[1,2-a]pyrimidin-7-yl)pyrimidin-2-yl)amino)tetrahydro-2H-pyran-3-ol] | ≤ 500 nM | ≤ 500 nM | ≤ 500 nM |
| CC(C)n1c(N2CCOC2=O)nc2c(F)cc(-c3nc(N[C@@H]4CCOC[C@H]4O)ncc3Cl)cc21 [TA-55] | ≤ 500 nM | ≤ 500 nM | ≤ 500 nM |
| CC(C)n1c(N(C)C)nc2c(F)cc(-c3nc(N[C@@H]4CCOC[C@H]4O)ncc3Cl)cc21 [TB-1] | ≤ 500 nM | ≤ 500 nM | ≤ 500 nM |
| CC(C)n1c(N(C)C)nc2c(F)cc(-c3nc(NC4CCOCC4)ncc3Cl)cc21 [TB-2, 6-(5-chloro-2-((tetrahydro-2H-pyran-4-yl)amino)pyrimidin-4-yl)-4-fluoro-1-isopropyl-N,N-dimethyl-1H-benzo[d]imidazol-2-amine] | ≤ 500 nM | ≤ 500 nM | ≤ 500 nM |
| CC(C)n1c(N(C)C)nc2c(F)cc(-c3nc(NC4CCN(S(C)(=O)=O)CC4)ncc3Cl)cc21 [TB-3, 6-(5-chloro-2-((1-(methylsulfonyl)piperidin-4-yl)amino)pyrimidin-4-yl)-4-fluoro-1-isopropyl-N,N-dimethyl-1H-benzo[d]imidazol-2-amine] | ≤ 500 nM | ≤ 500 nM | ≤ 500 nM |
| CC(C)n1c(N(C)C)nc2c(F)cc(-c3nc(N[C@H]4CC[C@H](NS(C)(=O)=O)CC4)ncc3Cl)cc21 [TB-5] | ≤ 500 nM | ≤ 500 nM | ≤ 500 nM |
| CC(C)n1c(N2CC[C@H](O)C2)nc2c(F)cc(-c3nc(N[C@@H]4CCOC[C@H]4O)ncc3Cl)cc21 [TB-6, (S)-1-(6-(5-chloro-2-(((3S,4R)-3-hydroxytetrahydro-2H-pyran-4-yl)amino)pyrimidin-4-yl)-4-fluoro-1-isopropyl-1H-benzo[d]imidazol-2-yl)pyrrolidin-3-ol] | 500 to 2000 nM | ≤ 500 nM | ≤ 500 nM |
| CC(C)n1c(N2CC[C@@H](O)C2)nc2c(F)cc(-c3nc(N[C@@H]4CCOC[C@H]4O)ncc3Cl)cc21 [TB-7, (R)-1-(6-(5-chloro-2-(((3S,4R)-3-hydroxytetrahydro-2H-pyran-4-yl)amino)pyrimidin-4-yl)-4-fluoro-1-isopropyl-1H-benzo[d]imidazol-2-yl)pyrrolidin-3-ol] | ≤ 500 nM | ≤ 500 nM | ≤ 500 nM |
| COC(=O)N(C)c1nc2c(F)cc(-c3nc(N[C@@H]4CCOC[C@H]4O)ncc3Cl)cc2n1C(C)C [TB-8, methyl (6-(5-chloro-2-(((3S,4R)-3-hydroxytetrahydro-2H-pyran-4-yl)amino)pyrimidin-4-yl)-4-fluoro-1-isopropyl-1H-benzo[d]imidazol-2-yl)(methyl)carbamate] | 500 to 2000 nM | ≤ 500 nM | ≤ 500 nM |
| CC(C)n1c(N(C)CCO)nc2c(F)cc(-c3nc(N[C@@H]4CCOC[C@H]4O)ncc3Cl)cc21 [TB-9, (3S,4R)-4-((5-chloro-4-(4-fluoro-2-((2-hydroxyethyl)(methyl)amino)-1-isopropyl-1H-benzo[d]imidazol-6-yl)pyrimidin-2-yl)amino)tetrahydro-2H-pyran-3-ol] | 500 to 2000 nM | ≤ 500 nM | ≤ 500 nM |
| CC(C)n1c(N2CCCC2)nc2c(F)cc(-c3nc(N[C@@H]4CCOC[C@H]4O)ncc3Cl)cc21 [TB-11, (3S,4R)-4-((5-chloro-4-(4-fluoro-1-isopropyl-2-(pyrrolidin-1-yl)-1H-benzo[d]imidazol-6-yl)pyrimidin-2-yl)amino)tetrahydro-2H-pyran-3-ol] | ≤ 500 nM | ≤ 500 nM | ≤ 500 nM |
| CC(C)n1c(N(C)C)nc2c(F)cc(-c3nc(N[C@@H]4CCN(S(C)(=O)=O)C[C@H]4O)ncc3Cl)cc21 [TB-13, (3R,4R)-4-((5-chloro-4-(2-(dimethylamino)-4-fluoro-1-isopropyl-1H-benzo[d]imidazol-6-yl)pyrimidin-2-yl)amino)-1-(methylsulfonyl)piperidin-3-ol] | ≤ 500 nM | ≤ 500 nM | ≤ 500 nM |
| CC(C)n1c(N2CC(O)C2)nc2c(F)cc(-c3nc(N[C@@H]4CCOC[C@H]4O)ncc3Cl)cc21 [TB-14, 1-(6-(5-chloro-2-(((38,4R)-3-hydroxytetrahydro-2H-pyran-4-yl)amino)pyrimidin-4-yl)-4-fluoro-1-isopropyl-1H-benzo[d]imidazol-2-yl)azetidin-3-ol] | ≤ 500 nM | ≤ 500 nM | ≤ 500 nM |
| CCN1CCN(Cc2ccc(Nc3ncc(Cl)c(-c4cc(F)c5nc(N(C)C)n(C(C)C)c5c4)n3)nc2)CC1 [TB-16] | ≤ 500 nM | ≤ 500 nM | ≤ 500 nM |
| COc1cc(N2CCNCC2)ccc1Nc1ncc(Cl)c(-c2cc(F)c3nc(N(C)C)n(C(C)C)c3c2)n1 [TB-17, 6-(5-chloro-2-((2-methoxy-4-(piperazin-1-yl)phenyl)amino)pyrimidin-4-yl)-4-fluoro-1-isopropyl-N,N-dimethyl-1H-benzo[d]imidazol-2-amine] | 500 to 2000 nM | 500 to 2000 nM | 500 to 2000 nM |
| CC(C)n1c(N(C)C)nc2c(F)cc(-c3nc(Nc4ccc(N5CCNCC5)cn4)ncc3Cl)cc21 [TB-18, 6-(5-chloro-2-((5-(piperazin-1-yl)pyridin-2-yl)amino)pyrimidin-4-yl)-4-fluoro-1-isopropyl-N,N-dimethyl-1H-benzo[d]imidazol-2-amine] | ≤ 500 nM | ≤ 500 nM | ≤ 500 nM |
| CC(C)n1c(N2CCCOC2=O)nc2c(F)cc(-c3nc(N[C@@H]4CCOC[C@H]4O)ncc3Cl)cc21 [TB-25] | 500 to 2000 nM | ≤ 500 nM | ≤ 500 nM |
| CC(C)n1c(N2CCOC2=O)nc2c(F)cc(-c3nc(NC4CCN(S(C)(=O)=O)CC4)ncc3Cl)cc21 [TB-26] | ≤ 500 nM | ≤ 500 nM | ≤ 500 nM |
| CC(C)n1c(N2CCOC2=O)nc2c(F)cc(-c3nc(NC4CCN(S(C)(=O)=O)CC4)ncc3F)cc21 [TB-28] | ≤ 500 nM | ≤ 500 nM | ≤ 500 nM |
| CC(C)n1c(N2CCOC2=O)nc2c(F)cc(-c3nc(NC4CCN(S(=O)(=O)C(C)C)CC4)ncc3Cl)cc21 [TB-32] | ≤ 500 nM | ≤ 500 nM | ≤ 500 nM |
| CC(C)n1c(N2CCOC2=O)nc2c(F)cc(-c3nc(NC4CCN(S(=O)(=O)C5CC5)CC4)ncc3Cl)cc21 [TB-33] | ≤ 500 nM | ≤ 500 nM | ≤ 500 nM |
| CC(C)n1c(N2CCOC2=O)nc2c(F)cc(-c3nc(NC4CCN(S(C)(=O)=O)CC4(F)F)ncc3Cl)cc21 (stereo not drawn) [TB-35] | ≤ 500 nM | ≤ 500 nM | ≤ 500 nM |
| CC(C)n1c(N2CCOC2=O)nc2c(F)cc(-c3nc(Nc4ccc(S(=O)(=O)NCCN(C)C)cc4)ncc3Cl)cc21 [TB-38, 4-((5-chloro-4-(4-fluoro-1-isopropyl-2-(2-oxooxazolidin-3-yl)-1H-benzo[d]imidazol-6-yl)pyrimidin-2-yl)amino)-N-(2-(dimethylamino)ethyl)benzenesulfonamide] | ≤ 500 nM | ≤ 500 nM | ≤ 500 nM |
| CN1CCCn2c1nc1c(F)cc(-c3nc(N[C@@H]4CCOC[C@H]4O)ncc3Cl)cc12 [TB-40] | ≤ 500 nM | ≤ 500 nM | ≤ 500 nM |
